Measured values published in ChEMBL document CHEMBL1133644, “Platelet glycoprotein IIb-IIIa antagonists as prototypical integrin blockers: novel parenteral and potential oral antithrombotic agents” (J Med Chem, 2000).
Each block holds one compound with its values, some of them ahead of it. Positions of bridges follow the written chain, without caps; N, C: chain ends. Non-standard residues stand in square brackets, D forms with d. Residues, ends and D or L forms follow the SMILES beside them. NMeR = CN[C@@H](CCCNC(=N)N)C(=O)O; hArg = N=C(N)NCCCC[C@H](N)C(=O)O; 3Amb = NCc1cccc(C(=O)O)c1; dAbu = CC[C@@H](N)C(=O)O; Mpa = O=C(O)CCS

Experiments:
[1] = target: T1, Integrin alpha-IIb/beta-3 (Homo sapiens, UniProt P05106+P08514); assay: Dissociation constant for alpha IIb beta-3 integrin rested platelets; assay type: functional
Target sequence in this assay (P05106 27-788 limits assumed): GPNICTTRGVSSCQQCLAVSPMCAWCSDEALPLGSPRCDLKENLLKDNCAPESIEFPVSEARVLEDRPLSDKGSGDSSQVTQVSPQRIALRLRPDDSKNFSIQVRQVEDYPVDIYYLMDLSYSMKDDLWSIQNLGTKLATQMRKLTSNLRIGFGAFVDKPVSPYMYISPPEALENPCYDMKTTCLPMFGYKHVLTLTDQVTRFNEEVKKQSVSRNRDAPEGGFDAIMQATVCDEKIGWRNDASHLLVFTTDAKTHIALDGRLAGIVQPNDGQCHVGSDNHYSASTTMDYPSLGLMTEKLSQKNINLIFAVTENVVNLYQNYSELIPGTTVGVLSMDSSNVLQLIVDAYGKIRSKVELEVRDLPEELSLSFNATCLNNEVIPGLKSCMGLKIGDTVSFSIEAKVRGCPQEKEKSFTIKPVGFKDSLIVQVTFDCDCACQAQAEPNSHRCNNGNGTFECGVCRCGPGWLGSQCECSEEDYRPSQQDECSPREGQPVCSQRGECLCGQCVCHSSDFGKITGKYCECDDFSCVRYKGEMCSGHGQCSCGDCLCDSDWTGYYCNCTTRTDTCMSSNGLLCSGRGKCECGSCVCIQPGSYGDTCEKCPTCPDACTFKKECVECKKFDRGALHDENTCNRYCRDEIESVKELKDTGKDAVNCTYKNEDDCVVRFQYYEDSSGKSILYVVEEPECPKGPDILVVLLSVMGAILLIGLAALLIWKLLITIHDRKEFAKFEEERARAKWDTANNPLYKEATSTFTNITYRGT
Target sequence in this assay (P08514 32-887 limits assumed): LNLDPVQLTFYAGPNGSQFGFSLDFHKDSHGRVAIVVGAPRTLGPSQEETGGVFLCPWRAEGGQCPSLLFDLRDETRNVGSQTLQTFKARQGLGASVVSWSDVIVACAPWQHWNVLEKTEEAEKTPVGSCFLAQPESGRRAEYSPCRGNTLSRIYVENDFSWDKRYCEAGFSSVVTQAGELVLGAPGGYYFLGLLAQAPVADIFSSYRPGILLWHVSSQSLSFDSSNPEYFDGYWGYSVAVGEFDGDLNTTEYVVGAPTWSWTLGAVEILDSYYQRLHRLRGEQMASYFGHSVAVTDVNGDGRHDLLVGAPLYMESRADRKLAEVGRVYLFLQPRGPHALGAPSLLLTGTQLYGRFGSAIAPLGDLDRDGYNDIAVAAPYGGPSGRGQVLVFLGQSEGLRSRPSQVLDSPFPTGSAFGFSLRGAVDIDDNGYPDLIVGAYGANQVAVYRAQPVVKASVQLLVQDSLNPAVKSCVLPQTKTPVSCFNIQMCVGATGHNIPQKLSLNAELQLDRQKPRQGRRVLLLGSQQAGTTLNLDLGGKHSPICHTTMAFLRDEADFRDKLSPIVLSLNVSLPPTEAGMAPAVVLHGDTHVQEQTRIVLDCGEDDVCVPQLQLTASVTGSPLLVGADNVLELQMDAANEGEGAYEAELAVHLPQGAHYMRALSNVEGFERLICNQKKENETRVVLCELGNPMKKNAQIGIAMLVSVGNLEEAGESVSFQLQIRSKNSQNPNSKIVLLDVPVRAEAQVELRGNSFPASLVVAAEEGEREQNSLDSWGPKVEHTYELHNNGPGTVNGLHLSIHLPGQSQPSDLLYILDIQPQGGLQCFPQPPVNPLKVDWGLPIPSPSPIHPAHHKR
Target sequence in this assay (P08514 891-1039 limits assumed): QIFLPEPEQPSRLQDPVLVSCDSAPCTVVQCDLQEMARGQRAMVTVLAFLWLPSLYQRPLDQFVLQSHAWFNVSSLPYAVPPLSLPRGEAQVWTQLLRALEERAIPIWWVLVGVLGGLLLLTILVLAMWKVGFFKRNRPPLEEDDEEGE

[2] = target: T1, Integrin alpha-IIb/beta-3; assay: Inhibition of ex vivo platelet aggregation after oral administration of 0.5 mg/kg to cynomolgus monkeys at 2-8h; assay type: functional, organism-based; set-up: dose 0.5 mg/kg; settings: at 0.5 mg/kg
[3] = target: T1, Integrin alpha-IIb/beta-3; assay: Inhibition of fibrinogen binding to alpha IIb beta-3 integrin; assay type: protein-complex assay
Target sequence in this assay (P05106 27-788 limits assumed): as the sequence (P05106 27-788 limits assumed) above
Target sequence in this assay (P08514 32-887 limits assumed): as the sequence (P08514 32-887 limits assumed) above
Target sequence in this assay (P08514 891-1039 limits assumed): as the sequence (P08514 891-1039 limits assumed) above

[4] = target: T1, Integrin alpha-IIb/beta-3; assay: Dissociation constant for [3H]-DMP728 binding to alphaIIb beta III integrin; assay type: protein-complex assay
Target sequence in this assay (P05106 27-788 limits assumed): as the sequence (P05106 27-788 limits assumed) above
Target sequence in this assay (P08514 32-887 limits assumed): as the sequence (P08514 32-887 limits assumed) above
Target sequence in this assay (P08514 891-1039 limits assumed): as the sequence (P08514 891-1039 limits assumed) above

[5] = oral bio availability was measured on dogs; assay type: ADME, organism-based, Canis lupus familiaris; settings: dog, in vivo
[6] = oral bioavailability was measured on rats; assay type: ADME, organism-based; settings: rat, in vivo
[7] = oral bioavailability was measured on rhesus monkey; assay type: ADME, organism-based, Macaca mulatta; settings: in vivo
[8] = Bioavailability in humans; assay type: ADME, organism-based; settings: human, in vivo
[9] = Half-life in humans; assay type: ADME, organism-based; settings: human, in vivo
[10] = In vitro inhibition of gel filtered platelet aggregation induced by ADP.
[11] = target: T1, Integrin alpha-IIb/beta-3; assay: Inhibition of platelet aggregation after 10 ug/kg/day dose over 6 days in dogs; assay type: functional; settings: Canis lupus familiaris; target entry is the homologue from another species
[12] = target: T1, Integrin alpha-IIb/beta-3; assay: Inhibition of fibrinogen binding to alpha IIb beta-3 integrin using thrombin inhibitor PPACK as anticoagulant; assay type: functional
Target sequence in this assay (P05106 27-788 limits assumed): as the sequence (P05106 27-788 limits assumed) above
Target sequence in this assay (P08514 32-887 limits assumed): as the sequence (P08514 32-887 limits assumed) above
Target sequence in this assay (P08514 891-1039 limits assumed): as the sequence (P08514 891-1039 limits assumed) above

[13] = target: T1, Integrin alpha-IIb/beta-3; assay: Inhibition of [125]fibrinogen binding to alpha IIb beta-3 integrin; assay type: protein-complex assay
Target sequence in this assay (P05106 27-788 limits assumed): as the sequence (P05106 27-788 limits assumed) above
Target sequence in this assay (P08514 32-887 limits assumed): as the sequence (P08514 32-887 limits assumed) above
Target sequence in this assay (P08514 891-1039 limits assumed): as the sequence (P08514 891-1039 limits assumed) above

[14] = biological half-life was measured on dog; assay type: ADME, organism-based, Canis lupus familiaris; settings: in vivo
[15] = target: T1, Integrin alpha-IIb/beta-3; assay: Inhibition of fixed platelet aggregation; assay type: functional
Target sequence in this assay (P05106 27-788 limits assumed): as the sequence (P05106 27-788 limits assumed) above
Target sequence in this assay (P08514 32-887 limits assumed): as the sequence (P08514 32-887 limits assumed) above
Target sequence in this assay (P08514 891-1039 limits assumed): as the sequence (P08514 891-1039 limits assumed) above

[16] = target: T1, Integrin alpha-IIb/beta-3; assay: Inhibition of fibrinogen binding to activated platelets
[17] = oral bioavailability was measured in dogs; assay type: ADME, organism-based, Canis lupus familiaris; settings: dog, in vivo
[18] = oral bioavailability was measured in rhesus monkeys; assay type: ADME, organism-based, Macaca mulatta; settings: rhesus monkey, in vivo
[19] = Oral bioavailability in dog; assay type: ADME, organism-based, Canis lupus familiaris; settings: in vivo
[20] = The biological half life was measured on dog; assay type: ADME, organism-based, Canis lupus familiaris; settings: in vivo
[21] = biological half-life was measured on rhesus monkeys; assay type: ADME, organism-based, Macaca mulatta; settings: rhesus monkey, in vivo
[22] = biological half-life was measured on dogs; assay type: ADME, organism-based, Canis lupus familiaris; settings: dog, in vivo
[23] = target: T1, Integrin alpha-IIb/beta-3; assay: Inhibition of platelet aggregation after administration of 30 ug/kg iv bolus to dogs within first 1-15 min; assay type: functional, organism-based; settings: Canis lupus familiaris; target entry is the homologue from another species
Homo sapiens [24] = species on record: Homo sapiens; assay: half-life was measured on unactivated human platelets
[25] = oral bioavailability was measured on dogs and rats; assay type: ADME, organism-based; settings: eutheria, in vivo
[26] = target: T1, Integrin alpha-IIb/beta-3; assay: Inhibition of platelet aggregation after administration of 10 ug/kg iv to dogs within 1 min; assay type: functional, organism-based; settings: Canis lupus familiaris; target entry is the homologue from another species
[27] = target: T1, Integrin alpha-IIb/beta-3; assay: Inhibition of platelet aggregation after administration of 0.1 mg/kg at 24 hr; settings: Canis lupus familiaris
[28] = target: T1, Integrin alpha-IIb/beta-3; assay: Percent inhibition of gel filtered platelet aggregation induced by ADP; assay type: functional; settings: concentration not given here
[29] = target: T1, Integrin alpha-IIb/beta-3; assay: Inhibition of platelet aggregation after administration of 10 ug/kg iv to dogs at 8 hr; assay type: functional, organism-based; settings: Canis lupus familiaris; target entry is the homologue from another species
[30] = Duration of action in dog at a dose of 1 mg/kg i.d.; assay type: ADME, organism-based, Canis lupus familiaris; set-up: dose 1 mg/kg, route intraduodenal; settings: in vivo, other
[31] = target: T1, Integrin alpha-IIb/beta-3; assay: Inhibition of alpha IIb beta III mediated platelet aggregation
[32] = Inhibition of vitronectin receptor binding; set-up: species or system Homo sapiens
[33] = target: T1, Integrin alpha-IIb/beta-3; assay: Inhibition of platelet aggregation after 0.25 mg/kg/day dose over 4 days at trough plasma concentrations in dogs; assay type: functional, organism-based; settings: Canis lupus familiaris, target entry is the homologue from another species
[34] = half-life of compound in human; settings: in vivo
[35] = target: T1, Integrin alpha-IIb/beta-3; assay: Inhibition of ex vivo maximal platelet aggregation in conscious dogs after oral administration of 4 mg/kg; settings: Canis lupus familiaris; target entry is the homologue from another species; at 4 mg/kg
[36] = half life was measured on dogs; assay type: ADME, organism-based, Canis lupus familiaris; settings: dog, in vivo
[37] = target: T1, Integrin alpha-IIb/beta-3; assay: Inhibition of platelet aggregation after oral administration of 3 mg/kg to guinea pigs within 1 hr; assay type: functional, organism-based; set-up: dose 3 mg/kg; settings: Cavia porcellus; target entry is the homologue from another species; at 3 mg/kg
[38] = target: T1, Integrin alpha-IIb/beta-3; assay: Inhibition of platelet aggregation after oral administration of 3 mg/kg to guinea pigs at 8 hr; assay type: functional, organism-based; set-up: dose 3 mg/kg; settings: Cavia porcellus; target entry is the homologue from another species; at 3 mg/kg
[39] = Inhibition of platelet aggregation
Homo sapiens [40] = species on record: Homo sapiens; assay: biological half-life was measured on unactivated human platelets

Compound: Cc1c(C(=O)NCCC(=O)O)s/c(=N\C(=O)c2ccc(C(=N)N3CCC4(CC3)OCCO4)cc2)n1C
inhibition [2]: > 80%

Compound: CC[C@H]1NC(=O)c2cccc(c2)CNC(=O)[C@H](CC(=O)O)NC(=O)CNC(=O)[C@H](CCCN=C(N)N)N(C)C1=O (cyclo([NMeR]GD[3Amb][dAbu]))
IC50 [3]: 0.0023 µM
Kd [4]: 0.0001 µM
bioavailability [5]: 12%

Compound: CCOC(=O)CCN1CC(=O)N(C)c2ccc(C#Cc3ccc(C(=N)NC(=O)OCC)cc3)cc2C1=O
bioavailability [6]: 6%
bioavailability [7]: 21%

Compound: CCOC(=O)CN1CCN(C[C@@H]2CN(c3ccc(C(N)=NC(=O)OC)cc3)C(=O)O2)CC1 [GANTOFIBAN]
bioavailability [8]: 40%
half-life [9]: 6 h

Compound: N=C(N)NCCCC[C@@H]1NC(=O)CCSSC[C@@H](C(N)=O)NC(=O)[C@@H]2CCCN2C(=O)[C@H](Cc2c[nH]c3ccccc23)NC(=O)[C@H](CC(=O)O)NC(=O)CNC1=O [EPTIFIBATIDE] ([Mpa][hArg]GDWPC-NH2; disulfide 1-7)
IC50 [12]: 0.57 µM

Compound: CC(=O)N[C@H]1CSSC[C@@H](C(N)=O)NC(=O)[C@H](CC(=O)O)NC(=O)CNC(=O)[C@H](CCCN=C(N)N)N(C)C1=O (Ac-C[NMeR]GDC-NH2; disulfide 1-5)
IC50 [13]: 0.0028 µM
IC50 [3]: 0.48 µM
half-life [14]: 1.1 h

Compound: C#C[C@H](CC(=O)O)NC(=O)CCC(=O)Nc1ccc(C(=N)N)cc1
bioavailability [19]: 53%
half-life [20]: 6.5 h

Compound: CC(=O)N[C@@H](CCCN=C(N)N)C(=O)NCC(=O)N[C@@H](CC(=O)O)C(=O)N[C@H](C(N)=O)C(C)C (Ac-RGDV-NH2)
IC50 [3]: 27 µM

Compound: COc1ccc(C[C@H](NC(=O)[C@H](CC(=O)O)NC(=O)CNC(=O)[C@@H](N)CCCNC(=N)N)C(N)=O)cc1 (H-RGDY(Me)-NH2)
IC50 [3]: 27 µM

Compound: CCOC(=O)CCNC(=O)N[C@H]1CCN(c2ccc(C(=N)N)cc2)C1=O [ORBOFIBAN]
half-life [14]: 18 h
bioavailability [19]: 28%

Compound: Cc1noc(C)c1S(=O)(=O)N[C@@H](CNC(=O)C[C@H]1CC(c2ccc(C(=N)N)cc2)=NO1)C(=O)O
T1/2 (Homo sapiens [24]): 0.533 h

Compound: C[C@@H](COc1ccc(N2CCN(c3ccncc3)CC2)cc1)CC(=O)O
bioavailability [25]: > 50%

Compound: N=C(N)c1ccc2oc(C(=O)NCCC(=O)NC[C@H](NS(=O)(=O)c3ccccc3)C(=O)O)cc2c1
IC50 [10]: 0.035 µM

Compound: CN1C(=O)c2ccccc2SSc2ccccc2NC(=O)[C@H](CC(=O)O)NC(=O)CNC(=O)[C@@H]1CCCN=C(N)N [SKF-107260]
Ki [32]: 0.0035 µM

Compound: N=C(N)c1ccc(C(=O)Nc2ccc3c(c2)CCN(CC(=O)O)C3=O)cc1
IC50 [10]: 0.09 µM

Compound: CN1C(=O)CN(CCC(=O)O)C(=O)c2cc(C#Cc3ccc(C(=N)N)cc3)ccc21
IC50 [10]: 0.12 µM

Compound: C#C[C@H](CC(=O)OCC)NC(=O)CCC(=O)Nc1ccc(C(=N)N)cc1 [XEMILOFIBAN]
F [19]: 53%

Compound: O=C(NC[C@H](NS(=O)(=O)c1ccccc1)C(=O)O)c1ccc(N2CCNCC2)cc1
IC50 [39]: 0.017 µM

Compound: CCCCOC(=O)N[C@@H](CNC(=O)C[C@H]1CC(c2ccc(C(=N)N)cc2)=NO1)C(=O)O
T1/2 (Homo sapiens [40]): 7 min

Now from value to compound:

Kd [1]: 0.0014 µM
Compound: CCCCS(=O)(=O)N[C@@H](CNC(=O)c1cc2n(n1)CCN(CCC1CCNCC1)C2=O)C(=O)O

IC50 [10]: 0.008 µM
inhibition [11]: > 80%
Compound: O=C(NC[C@H](NS(=O)(=O)c1cccnc1)C(=O)O)c1cc2cc(CCC3CCNCC3)sc2s1

IC50 [15]: 0.097 µM
IC50 [16]: 0.028 µM
Compound: CCN(CC(=O)N[C@@H](CC(=O)O)C(=O)N[C@@H](Cc1ccccc1)C(N)=O)C(=O)CCCC1CCNCC1

IC50 [10]: 0.007 µM
Compound: O=C(NC[C@H](NS(=O)(=O)c1ccccc1)C(=O)O)c1cc2sc(CCC3CCNCC3)cc2s1

bioavailability [17]: > 17%
bioavailability [18]: 32%
Compound: C#C[C@H](CC(=O)OCC)NC(=O)CN1CCc2ccc(N3CCNCC3)cc2C1=O

half-life [21]: 5.1 h
half-life [22]: 11.4 h
Compound: C[C@H](NC(=O)c1ccc(C(=N)N)cc1)C(=O)N1CCC(OCC(=O)O)CC1 [RO-44-3888]

inhibition [23]: > 90%
bioavailability [19]: 16%
Kd [1]: 0.65 µM
Compound: C[C@H](CC(=O)O)NC(=O)CN1CCC[C@@H](CCC2CCNCC2)C1=O

inhibition [26]: 79%
inhibition [27]: 87%
inhibition [28]: 66%
inhibition [29]: > 90%
Compound: Cc1ccc(S(=O)(=O)N[C@@H](CNC(=O)c2cc3n(n2)CCCN(CCC2CCNCC2)C3=O)C(=O)O)cc1

duration of action [30]: > 8 h
Kd [31]: 0.00185 µM
Compound: CN1Cc2cc(C(=O)N3CCC(C4CCNCC4)CC3)ccc2N[C@@H](CC(=O)O)C1=O [LOTRAFIBAN]

bioavailability [19]: 42%
half-life [22]: 9.9 h
Compound: C[C@@]1(c2ccc(C(=N)N)cc2)NC(=O)N(CC(=O)NC(CC(=O)O)c2ccccc2)C1=O (some centres not stated)

IC50 [10]: 0.015 µM
Compound: O=C(NC[C@H](NS(=O)(=O)c1cccnc1)C(=O)O)c1ccc2c(c1)C(=O)N(CCC1CCNCC1)C2

bioavailability [17]: 4.9%
Compound: O=C(CCCC1CCNCC1)NCC(=O)N[C@H](CCc1c[nH]c2ccccc12)C(=O)O

inhibition [33]: 95%
Compound: O=C(NC[C@H](NS(=O)(=O)c1ccccc1)C(=O)O)c1cc2cc(OCC3CCNCC3)ccc2[nH]1

half-life [34]: 0.5 h
Compound: CCCCS(=O)(=O)N[C@@H](Cc1ccc(OCCCCC2CCNCC2)cc1)C(=O)O [TIROFIBAN]

inhibition [35]: 90%
IC50 [10]: 0.025 µM
Compound: O=C(O)CCNC(=O)c1ccc2c(c1)C(=O)N(CCC1CCNCC1)C2

half-life [36]: 1.42 h
Compound: O=C(O)C[C@H](NC(=O)[C@@H]1CCCN(C(=O)CCC2CCNCC2)C1)c1cccnc1 [ELAROFIBAN]

inhibition [37]: > 90%
inhibition [38]: 40%
Compound: COC(=O)C[C@H]1C(=O)N(CC(=O)O)CCN1C(=O)CNC(=O)c1ccc(C(=N)N)cc1
